Laboratory results taken from patent publication US5698547A, “Cephalosporin antibiotics” (Microcide Pharmaceuticals, Inc., priority 1995, dated 1997).
Converted amounts (≈) assume the structure as drawn. Counter-ions that a name gives are not always drawn.

Tests used:
[1] = tested on: methicillin-susceptible S. aureus strain ATCC 13709; assay: murine model for lethal bacteremic peritonitis; type: in vivo, female Swiss-Webster mice; conditions: subcutaneous, 72 h
Method: Groups of 5 female Swiss-Webster mice (Simonsen, Gilroy, Calif.) each are challenged by the intraperitoneal (IP) route with tenfold increments of a bacterial inoculum. This permits calculation of the mean lethal dose (LD50) and the LD100. For preliminary evaluation of a new antibiotic, mice are challenged IP with an LD100 titer of bacteria. In two equal doses administered at the time of bacterial challenge and 2 hours later, groups of 10 mice each are treated subcutaneously with two-fold increments of the test drug and an antibiotic of known efficacy in mice and humans (i.e., positive control). Mice are observed for 72 h. Those alive at 72 h are considered long term survivors. The total drug dose in mg/kg that protects 50% of mice in a group from death is termed the mean protective dose (PD50). PD50 s are similarly determined for several pathogens. The quantitative endpoints for the new drug are then compared with those obtained with reference antibiotics.
Six ten-fold dilutions of inoculum suspended in 0.5 mL of sterilized 7% hog gastric mucin (Sigma) are injected IP in groups of 5 mice each. A control group of 5 mice receive mucin alone. Mice are observed for 72 h. Those alive at 72 h are considered long term survivors. The mean lethal dose (LD50) and 100% lethal dose (LD100) are determined by the probit test.
For antibiotic efficacy studies, mice are challenged IP with bacterial titers that will afford an LD100 for the test strain. In two equal doses administered at the time of bacterial challenge and 2 hours later, groups of 10 mice each are treated by the subcutaneous route (SC) with twofold increments of the test antibiotic; another group is treated similarly with a reference antibiotic of known efficacy in animals and man. Drug doses can range from 0.01 to 512 mg/kg. If the drug is poorly soluble, Tween 20 or propylene glycol will be employed to solubilize the drug. Animals are observed for 72 h. The 50% protective dose (PD50) is calculated in mg/kg by the probit method. The PD50 is the same as the 50% effective dose (ED50) and the 50% curative dose (CD50). Samples of blood from the hearts of all animals that die and from half the mice that survive are cultured on brain-heart infusion agar. Animals that received a protective dosage of the test drug will be alive at 72 h, although they may appear moderately ill to very ill during the observation period. […] Most of these mice will die within 6 to 48 h. Those alive at 72 h will be considered long term survivors.
(Compound numbers correspond to those in MIC tables; data
reported for challenge with methicillin-susceptible S. aureus

S. aureus ATCC 29213 = assay: MIC by agar dilution, S. aureus ATCC 29213; type: cell-based; conditions: Staphylococcus aureus, ATCC29213; agar dilution; S. aureus ATCC 29213; read-out: MIC
Method: (§1) The compounds of the invention were evaluated against several β-lactamresistant bacteria strains by determining the minimum inhibitory concentration (MIC, μg/ml) of each compound with respect to each strain. The MIC, the lowest concentration of antibiotic which inhibits growth of the test organism, was determined by the agar dilution method.
(§2) To determine the MIC for bacterial isolates, the test compound was incorporated in a series of two-fold dilutions into liquified Mueller-Hinton agar. Upon solidification, a number of different bacterial strains were spot inoculated with a replicating device onto the agar surface. […] The procedures used in these studies have been standardized by the National Committee for Clinical Laboratory Standards (NCCLS), as per the NCCLS publication entitled METHODS FOR DILUTION ANTIMICROBIAL SUSCEPTIBILITY TESTS (1991), which is incorporated herein by reference.
(§3) Aliquots of antimicrobial agents were prepared in phosphate buffered saline (PBS) at pH 7.2. Tween 20 or DMSO was used as a solubilizing vehicle as needed. Standard methods of vortexing, sonicating and gentle heat were used to facilitate solubilizing the test agent. Typically, the concentration of the stock solution was 10× that of the highest drug concentration tested. A 1.28 mg/mL stock solution was used with a subsequent highest working concentration of 128 μg/mL. Serial two-fold dilutions were done through ≤0.25 μg/mL. Each drug level was tested in duplicate. Two-fold drug dilutions were done in sterile 50 mL tubes with a final drug volume of 5 mL. Upon the addition of 45 mL of molten agar, a 10-fold dilution resulted. Two, 25 mL. plates were then poured into 15×150 mm square Petri plates with grids and allowed to harden.
(§4) A control plate with a reference drug, either cefotaxime, vancomycin or imipenem, was used as the positive growth control. Stock concentrations of reference antibiotics were prepared and frozen at -80° C. Upon preparation, the control plates were sealed and stored in the refrigerator for up to 1 week prior to use; however, imipenem control plates had to be prepared just prior to use. All test plates were used within 24 hours of preparation.
(§5) Satisfactory results were obtained where the inoculum contained about 10^4 colony forming units (cfu) ±0.5 logs. Starting with pure cultures of the test isolates on agar plates, a few isolated colonies were transferred to a tube of nutrient broth and allowed to grow 4-6 hours at 35°-36° C. to reach log-phase growth. Dropwise addition of the broth culture to PBS was done to match a 0.5 McFarland turbidity standard equal to 10^8 cfu/mL. This was further diluted ten-fold in PBS to reach a working inoculum concentration of 10^7 cfu/mL. When 1 μL of the working inoculum was applied to the agar surface a concentration of about 10^4 cfu per spot was obtained.
(§6) Disposable sterile 1 μL loops were used to inoculate test plates, with each isolate in a designated grid on the agar plate. An alternate method of inoculation involved the use of a replica plater, a device with 48 steel pins allowing the simultaneous inoculation of multiple isolates. After the spots had dried, the plates were incubated at 35°-36° C. for 16-20 hours. Endpoints were assessed as the minimum inhibitory concentration (MIC) of antimicrobial agent.

[2] = tested on: S. aureus Col (Meth^R) (lac^-); assay: MIC by agar dilution, S. aureus Col (Meth^R) (lac^-); type: cell-based; conditions: Staphylococcus aureus; agar dilution; S. aureus Col (Meth^R) (lac^-); read-out: MIC
Outline: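 Log-phase isolates were spot-inoculated at about 10^4 cfu onto Mueller-Hinton agar carrying duplicate two-fold compound levels, 128 μg/mL to ≤0.25 μg/mL, following NCCLS (1991). Plates were read after 16-20 h at 35°-36° C. The lowest growth-inhibiting concentration gave the MIC (μg/ml).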

[3] = tested on: S. aureus Col8A (Meth^S) (lac^-); assay: MIC by agar dilution, S. aureus Col8A (Meth^S) (lac^-); type: cell-based; conditions: Staphylococcus aureus; agar dilution; S. aureus Col8A (Meth^S) (lac^-); read-out: MIC
Method: as §1, §2, §3, §4, §5, §6
The novel agents of this invention are notable for their enhanced activity against S. aureus Col and Enterococci (E. faecium and E. faecalis). The S. aureus Col strain is a high-level PBP2a producer, whereas S. aureus Col 8A, its isogenic partner, lacks PBP2a. […] Thus, the compounds of the present invention are effective against PBP2a-producing bacteria.

[4] = tested on: S. aureus 76 (Meth^R) (lac^+); assay: MIC by agar dilution, S. aureus 76 (Meth^R) (lac^+); type: cell-based; conditions: Staphylococcus aureus, read-out: MIC
Method: as §1, §2, §3, §4, §5, §6

E. faecium ATCC 35667 = assay: MIC by agar dilution, E. faecium ATCC 35667; type: cell-based; conditions: Enterococcus faecium, ATCC35667, read-out: MIC
Method: as §1, §2, §3, §4, §5, §6

P. aeruginosa ATCC 27853 = assay: MIC by agar dilution, P. aeruginosa ATCC 27853; type: cell-based; conditions: Pseudomonas aeruginosa, ATCC27853, read-out: MIC
Method: as §1, §2, §3, §4, §5, §6

E. faecalis ATCC 29212 = assay: MIC by agar dilution, E. faecalis ATCC 29212; type: cell-based; conditions: Enterococcus faecalis, ATCC29212, read-out: MIC
Method: as §1, §2, §3, §4, §5, §6

S. haemolyticus (Meth^R) = assay: MIC by agar dilution, S. haemolyticus (Meth^R); type: cell-based; conditions: Staphylococcus haemolyticus, read-out: MIC
Method: as §1, §2, §3, §4, §5, §6

Structure (SMILES): O=C(CS/C=C\Cl)N[C@@H]1C(=O)N2C(C(=O)O)=C(Sc3ccnn3-c3ccccc3)CS[C@H]12 [Cmpd 131, (7R)-7-[((Z-2-Chlorovinyl)thioacetyl)amino]-3-(1-N-phenylpyrazol-5-ylthio)-3-cephem-4-carboxylic acid]
- Mortality ([1]; dose 0.625 mg/kg): 9/10
- Mortality ([1]; dose 1.25 mg/kg): 7/10
- Mortality ([1]; dose 2.5 mg/kg): 4/10
- Mortality ([1]; dose 5 mg/kg): 0/10
- Mortality ([1]; dose 10 mg/kg): 0/10
- MIC (S. aureus ATCC 29213): < 0.06 µg/mL
- MIC [2]: 1 µg/mL (≈ 1.96 µM)

Structure (SMILES): N=C(N)SCCSCC(=O)N[C@@H]1C(=O)N2C(C(=O)O)=C(Sc3ccc(CSC(=N)N)cc3CSC(=N)N)CS[C@H]12 [Cmpd 142, (7R)-7-[((2-(isothiouronium)ethylthio)acetyl)amino]-3-[2,4-(bis)isothiouroniummethylphenylthio]-3-cephem-4-carboxylate, trifluoroacetic acid salt]
- ED50 ([1]; Staphylococcus aureus, ATCC13709, sc, two equal doses, S. aureus ATCC 13709 IP challenge, read-out: ED50): < 0.156 mg/kg
- Mortality ([1]; dose 0.1562 mg/kg): 3/10
- Mortality ([1]; dose 0.3125 mg/kg): 1/10
- Mortality ([1]; dose 0.625 mg/kg): 0/10
- Mortality ([1]; dose 1.25 mg/kg): 0/10
- Mortality ([1]; dose 2.5 mg/kg): 0/10
- MIC [3]: 0.25 µg/mL
- MIC (S. aureus ATCC 29213): 0.25 µg/mL
- MIC [4]: 8 µg/mL
- MIC (E. faecium ATCC 35667): 0.5 µg/mL
- MIC (P. aeruginosa ATCC 27853): > 32 µg/mL
- MIC (E. faecalis ATCC 29212): 1 µg/mL
- MIC [2]: 4 µg/mL
- MIC (S. haemolyticus (Meth^R)): 8 µg/mL

Structure (SMILES): O=C(COc1ccccc1)N[C@@H]1C(=O)N2C(C(=O)O)=C(Sc3ccnn3-c3ccccc3)CS[C@H]12 [Cmpd 112, (7R)-7-[(phenyloxyacetyl)amino]-3-(1-N-phenylpyrazol-5-ylthio)-3-cephem-4-carboxylic acid]
- MIC [3]: ≤ 0.06 µg/mL
- MIC (S. aureus ATCC 29213): ≤ 0.06 µg/mL
- MIC [2]: 4 µg/mL (≈ 7.87 µM)

Structure (SMILES): N#Cc1ccccc1SC1=C(C(=O)O)N2C(=O)[C@@H](NC(=O)Cc3ccccc3)[C@H]2SC1 [Cmpd 41, (7R)-7-[(Phenylacetyl)amino]-3-(2-cyanophenylthio)-3-cephem-4-carboxylic acid]
- Mortality ([1]; dose 0.625 mg/kg): 8/10
- Mortality ([1]; dose 1.25 mg/kg): 6/10
- Mortality ([1]; dose 2.5 mg/kg): 0/10
- Mortality ([1]; dose 5 mg/kg): 0/10
- Mortality ([1]; dose 10 mg/kg): 0/10
- MIC [2]: 1 µg/mL (≈ 2.21 µM)

Structure (SMILES): O=C(CSc1ccccc1)N[C@@H]1C(=O)N2C(C(=O)O)=C(Sc3ccnn3-c3ccccc3)CS[C@H]12 [Cmpd 119, (7R)-7-[(phenylthioacetyl)amino]-3-(1-N-phenylpyrazol-5-ylthio)-3-cephem-4-carboxylic acid]
- Mortality ([1]; dose 0.3125 mg/kg): 10/10
- Mortality ([1]; dose 0.625 mg/kg): 9/10
- Mortality ([1]; dose 1.25 mg/kg): 10/10
- Mortality ([1]; dose 2.5 mg/kg): 7/10
- Mortality ([1]; dose 5 mg/kg): 8/10
- MIC [2]: 2 µg/mL (≈ 3.81 µM)

Structure (SMILES): N#CCC(=O)N[C@@H]1C(=O)N2C(C(=O)O)=C(Sc3ccccc3I)CS[C@H]12 [Cmpd 17, (7R)-7-[(Cyanoacetyl)amino]-3-(o-iodophenylthio)-3-cephem-4-carboxylic acid]
- Mortality ([1]; dose 2 mg/kg): 8/10
- Mortality ([1]; dose 4 mg/kg): 5/10
- Mortality ([1]; dose 8 mg/kg): 0/10
- Mortality ([1]; dose 16 mg/kg): 0/10
- MIC [2]: 2 µg/mL (≈ 3.99 µM)

Structure (SMILES): O=C(Cc1ccccc1)N[C@@H]1C(=O)N2C(C(=O)O)=C(Sc3cccnc3-n3cccn3)CS[C@H]12 [Cmpd 103, (7R)-7-[(Phenylacetyl)amino]-3-(2-(pyrazol-1-yl)pyridin-3-ylthio)-3-cephem-4-carboxylic acid]
- Mortality ([1]; dose 0.625 mg/kg): 7/10
- Mortality ([1]; dose 1.25 mg/kg): 7/10
- Mortality ([1]; dose 2.5 mg/kg): 7/10
- Mortality ([1]; dose 5 mg/kg): 5/10
- Mortality ([1]; dose 10 mg/kg): 0/10
- MIC [2]: 2 µg/mL (≈ 4.05 µM)

Structure (SMILES): CSCC(=O)N[C@@H]1C(=O)N2C(C(=O)O)=C(Sc3ccnn3-c3ccccc3)CS[C@H]12 [Cmpd 106, (7R)-7-[(methylthioacetyl)amino]-3-(1-N-phenylpyrazol-5-ylthio)-3-cephem-4-carboxylic acid]
- Mortality ([1]; dose 0.1562 mg/kg): 9/10
- Mortality ([1]; dose 0.3125 mg/kg): 9/10
- Mortality ([1]; dose 0.625 mg/kg): 6/10
- Mortality ([1]; dose 1.25 mg/kg): 2/10
- Mortality ([1]; dose 2.5 mg/kg): 1/10
- MIC [2]: 1 µg/mL (≈ 2.16 µM)

Structure (SMILES): O=C(Cc1ccccc1)N[C@@H]1C(=O)N2C(C(=O)O)=C(Sc3ccnn3-c3ccccc3)CS[C@H]12 [Cmpd 87, (7R)-7-[(Phenylacetyl)amino]-3-(1-N-phenylpyrazol-5-ylthio)-3-cephem-4-carboxylic acid]
- Mortality ([1]; dose 2 mg/kg): 4/10
- Mortality ([1]; dose 4 mg/kg): 3/10
- Mortality ([1]; dose 8 mg/kg): 0/10
- Mortality ([1]; dose 16 mg/kg): 0/10
- MIC [2]: 1 µg/mL (≈ 2.03 µM)
